What all share (type): binding
The target of test [1] is T1, human MDM2 protein (amino acids 2-188) (Homo sapiens (Human), UniProt Q00987). The test can be described thus: TR-FRET p53-MDM2 Assay 1. To be noted: 1.25 nM MDM2-biotinylated, 10 nM Cy5-p53 peptide. The protocol: (§1) Time Resolved Fluorescence Energy Transfer (TR-FRET) Assay
(§2) The inhibition of p53-MDM2 and p53-MDM4 interactions is measured by time resolved fluorescence energy transfer (TR-FRET). Fluorescence energy transfer (or Foerster resonance energy transfer) describes an energy transfer between donor and acceptor fluorescent molecules. For this assay, human MDM2 protein (amino acids 2-188) and human MDM4 protein (amino acids 2-185), tagged with a C-terminal biotin moiety, are used in combination with a Europium labeled streptavidin (Perkin Elmer, Inc., Waltham, Mass., USA) serving as the donor fluorophore. The p53 derived, Cy5 labeled peptide Cy5-TFSDLWKLL (p53 aa18-26) is the energy acceptor. Upon excitation of the donor molecule at 340 nm, binding interaction between MDM2 or MDM4 and the p53 peptide induces energy transfer and enhanced response at the acceptor emission wavelength at 665 nm.
(§3) Disruption of the formation of the p53-MDM2 or p53-MDM4 complex due to an inhibitor molecule binding to the p53 binding site of MDM2 or MDM4 results in increased donor emission at 620 nm. The ratiometric FRET assay readout is calculated from the raw data of the two distinct fluorescence signals measured in time resolved mode (fluorescence 665 nm/fluorescence 620 nm×1000).
(§4) The test is performed in white 384-well plates (Greiner Bio-One, reference 781207) in a total volume of 60 μL by adding 1 μL of compounds tested at different concentrations diluted in 100% DMSO (1.7% final DMSO concentration) in reaction buffer (PBS, 125 mM NaCl, 0.001% Novexin (consists of carbohydrate polymers), designed to increase the solubility and stability of proteins; Expedeon Ltd., Cambridgeshire, United Kingdom), 0.01% Gelatin, 0.01% 0.2%, Pluronic F-127 (block copolymer from ethylenoxide and propyleneoxide), 1 mM DTT). After addition of 1.25 nM MDM2-biotinylated or 2.5 nM MDM4-biotinylated (internal preparations, both MDM2 and MDM4 are biotinylated at the C-terminal of the peptide construct), and 0.625 nM Europium labeled streptavidin (Perkin Elmer), the solution is pre-incubated for 15 minutes at room temperature, then 10 nM Cy5-p53 peptide (internal preparation, the Cy5 dye is directly bound to the N-terminal part of p53 peptide construct) is added before an incubation at room temperature for 15 minutes prior to reading the plate. For measurement of samples, a Victor II microplate reader (Perkin Elmer) is used with the following settings: Excitation 340 nm, Emission Donor 620 nm and Emission Acceptor 665 nm. IC50 values are calculated by curve fitting using XLfit. If not specified, reagents are purchased from Sigma-Aldrich Chemie GmBH, Buchs, Switzerland.
(§5) This assay was used to evaluate compounds displaying inhibition of p53-MDM2 interaction and p53-MDM4 interaction at IC50s of 0.005 to 50 μM (p53-MDM2 Assay 1 and p53-MDM4 Assay 1, respectively). For selected compounds displaying IC50s between […] on MDM2, a slightly modified assay is used with the following adaptations: 0.1 nM MDM2, 0.1 nM Europium labeled streptavidin and Tecan genios Pro is used as a microplate reader for the fluorescence measurements (p53-MDM2 Assay 2).
(In TR-FRET formats the signal depends on donor and acceptor labels being close together.)

The target in test [2] is human MDM4 protein (amino acids 2-185) (Homo sapiens (Human), UniProt O15151). Kind of test: TR-FRET p53-MDM4 Assay 1. To be noted: 2.5 nM MDM4-biotinylated, 10 nM Cy5-p53 peptide. The protocol:
as §1, §2, §3, §4, §5

Test [3] concerns the target T1, human MDM2 protein (amino acids 2-188). The test can be described thus: TR-FRET p53-MDM2 Assay 2 (modified: 0.1 nM MDM2). To be noted: 0.1 nM MDM2, 0.1 nM Europium labeled streptavidin, Tecan genios Pro reader. The protocol:
as §1, §2, §3, §4, §5

Data on five compounds can be found in patent publication US9403827B2, “Substituted purinone compounds” (NOVARTIS AG, priority 2013, dated 2016).

Chain of human MDM4 protein (amino acids 2-185) (O15151 2-185): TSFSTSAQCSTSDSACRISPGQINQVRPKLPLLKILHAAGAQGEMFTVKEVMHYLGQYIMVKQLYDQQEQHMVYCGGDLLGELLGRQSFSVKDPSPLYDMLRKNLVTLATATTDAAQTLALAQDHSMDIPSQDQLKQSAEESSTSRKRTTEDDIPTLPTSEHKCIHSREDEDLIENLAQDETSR
T1 sequence (Q00987 2-188): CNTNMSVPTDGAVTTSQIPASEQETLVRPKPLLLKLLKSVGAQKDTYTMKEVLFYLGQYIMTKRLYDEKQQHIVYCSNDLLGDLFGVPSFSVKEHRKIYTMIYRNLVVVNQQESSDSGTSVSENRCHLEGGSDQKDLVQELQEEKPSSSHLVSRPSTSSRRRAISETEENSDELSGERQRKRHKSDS

What is called IC50 is the concentration that inhibits the measured activity by half. Take `COc1ccccc1-c1nc2c(n1C(C)C)C(c1ccc(Cl)cc1)N(c1cccc(Cl)c1F)C(=O)N2` (stereo not drawn) [Example 1, 1-(3-Chloro-2-fluoro-phenyl)-6-(4-chloro-phenyl)-7-isopropyl-8-(2-methoxy-phenyl)-1,3,6,7-tetrahydro-purin-2-one]: the IC50 came to 0.002 µM in test [1], 1.51 µM in test [2] and 0.882 nM in test [3].
The corresponding values for `COc1ccccc1-c1nc2c(n1C(C)C)C(c1ccc(Cl)cc1C)N(c1cccc(Cl)c1F)C(=O)N2` (stereo not drawn) [Example 2, 1-(3-Chloro-2-fluoro-phenyl)-6-(4-chloro-2-methyl-phenyl)-7-isopropyl-8-(2-methoxy-phenyl)-1,3,6,7-tetrahydro-purin-2-one] are 0.0021 µM, 2.13 µM and 0.779 nM.
As for `COc1ccccc1-c1nc2c(n1C(C)C)C(c1ccc(Cl)cc1C)N(c1cc(Cl)ccc1C)C(=O)N2` (stereo not drawn) [Example 3, 6-(4-Chloro-2-methylphenyl)-1-(5-chloro-2-methylphenyl)-7-isopropyl-8-(2-methoxyphenyl)-6,7-dihydro-1H-purin-2(3H)-one], the values for the IC50 in test [1] and in test [2] were 0.0018 µM and 1.45 µM, respectively.
With `COc1ccncc1-c1nc2c(n1C(C)C)C(c1ccc(Cl)cc1C)N(c1cc(Cl)ccc1C)C(=O)N2` (stereo not drawn) [Example 4, 6-(4-Chloro-2-methylphenyl)-1-(5-chloro-2-methylphenyl)-7-isopropyl-8-(4-methoxypyridin-3-yl)-6,7-dihydro-1H-purin-2(3H)-one], the IC50 in test [1] was determined as 0.0031 µM; in test [2], 16.7 µM.
Regarding `COc1ccncc1-c1nc2c(n1C(C)C)C(c1ccc(Cl)cc1)N(c1cccc(Cl)c1F)C(=O)N2` (stereo not drawn) [Example 6, 1-(3-Chloro-2-fluorophenyl)-6-(4-chlorophenyl)-7-isopropyl-8-(4-methoxypyridin-3-yl)-6,7-dihydro-1H-purin-2(3H)-one], the values for the IC50 in test [1] and in test [2] were 0.0085 µM and 14 µM, respectively.
